{
  "source": "patent US20180318291A1",
  "about": "“USE OF AMINOTHIAZOLE MYD88 SPECIFIC INHIBITOR TJM2010-5” (WUHAN INNAMUNE PHARMACEUTICAL INC. LTD., priority 2015, published 2018)",
  "key": {"[1]": {"system": "lymphocyte subpopulation in receptor spleen", "assay": "lymphocyte subpopulation in receptor spleen by flow cytometry", "assay_type": "in vivo, mice", "conditions": "FIG. 5", "excerpt": "In vitro experiment: conduct analysis on lymphocyte subpopulation in receptor spleen receiving stimulation of antigen (homogenic, allogeneic), and flow cytometer detection on CD4+CD25+Foxp3+T cell ratio in receptor receiving TJM2010-5 treatment.\n1. Take the receptor spleen of different groups (homogenic, allogenic antigenic stimulation), and grind them to separate lymphocyte;\n2. Add the IFN-γ labeled by flow antibody APC and IL-17 labeled by APC, CD25 labeled by APC and Foxp3 labeled by PE.\n3. Analyze the lymphocyte subpopulation in receptor spleen of various groups, and the CD4+CD25+Foxp3+T cell ratio in receptor receiving TJM2010-5 treatment with flow cytometry."}, "mice with endoxemia": {"system": "mice with endoxemia", "assay": "endoxemia lethal experiment (LPS)", "assay_type": "in vivo", "conditions": "250 mg/kg intragastric once a day for three days, then LPS ip; FIG. 15(a)", "description": "Part one: Observe the effect of MyD88 inhibitor on mortality of mice with endoxemia. The mice will be divided into 2 groups randomly:\nVehicle control group and experiment group (TJM2010-5 treatment group), and 20 mice in each group. Where, the TJM2010-5 treatment group is provided with the intragastric administration of TJM2010-5 (0.5% CMC solvent, 25 mg/ml) at the dose of 250 mg/kg (200 μL per mouse); the vehicle control group is provided with the intragastric administration of 0.5% CMC, 200 μL per mouse. Apply the intragastric administration once a day, and for three days successively. And on day 3, after the […], provide the intraperitoneal injection of LPS 1 hour later, then, observe the survival condition every twelve hours, and for three days."}, "GVHD mice": {"system": "GVHD mice", "assay": "GVHD model in irradiated BALB/c mice", "assay_type": "in vivo", "description": "Construction of GVHD model: Apply myeloablativetotal body irradiation (TBI, 710cGy) (HI-ENERGY PRIMV S-M X-ray source) on female BALB/c (H-2d) mice, and inject the bone marrow cell of […] of C57BL/6(B6, H-2^b) mice into it within 2 hours, and inject the B6spleen cells of […] into some of these female BALB/c (H-2d) mice at some time.\nGroups: GVHD mice are divided into 4 groups, where the first group is control group, and the 8 mice in the group are provided with no post operation treatment; the second group is provided with intragastric administration of TJM2010-5 of 50 mg/kg/day since the day of irradiation; the third group is the MR1 group, in which the 8 mice are provided with the treatment of MR1 of 10 mg/kg/time on day 0, 1, 2, 3, 7 and 14 after irradiation; the forth group is the combination treatment group (TJM2010-5+MR1), in which the 8 mice are treated with TJM2010-5 and MR1 by the method mentioned above.\nIn case TJM2010-5 is combined with MR1, it can reverse 100% of GVHD. However, other aminothiazole compounds have no or little such curative effect."}, "[2]": {"system": "heart of Balb/c mice transplanted to C57bl/6 mice", "assay": "mice heart transplantation model (graft survival)", "assay_type": "in vivo", "conditions": "Balb/c heart to C57bl/6; 150 mg/kg intraperitoneal day 0 to day 6; survive up to 100 days", "excerpt": "1) Application of TJM2010-5 in Mice Heart Transplantation Model\nFour groups are set in the experiment, which are: control group (conducting heart transplantation without any treatment), CMC group (vehicle control group), TJM2010-5 treatment group (effect detection group) and ciclosporinA (CsA) control group. The specific treatment methods as follows:\nControl group: Take and transplant the heart of Balb/c mice to the abdominal cavity of C57bl/6 mice, and no special treatment is provided after operation;\nCMC control group: Take and transplant the heart of Balb/c mice to the abdominal cavity of C57bl/6 mice, and provide intraperitoneal injection of sodium carboxymethyl cellulose (0.5% CMC) solution without TJM2010-5 on day 0 to day 6 after the heart transplantation, and the dose is 200 μl.\nTJM2010-5 treatment group: Take and transplant the heart of Balb/c mice to the abdominal cavity of C57bl/6 mice, and provide intraperitoneal injection of TJM2010-5 dissolved in CMC on day 0 to day 6 after the heart transplantation, and the dose is 150 mg/kg.\nCsA treatment group: Take and transplant the heart of Balb/c mice to the abdominal cavity of C57bl/6 mice, and provide intraperitoneal injection of CsA on day 0 to day 6 after the heart transplantation, and the dose is 15 mg/kg/day. […]"}, "C57bl/6 mice kidney IRI": {"system": "C57bl/6 mice kidney IRI", "assay": "renal ischemia reperfusion injury in mice", "assay_type": "in vivo", "description": "1. Groups: General C57bl/6 group (Control), CMC vehicle group, MYD88KO group, TJ-M2010 group, the 8 mice in each group will be provided with treatment of ischemia reperfusion: narcotize, block the left kidney with vascular clamp, and place them in incubator of 31 C° for 80 min; after that, open it and remove the right kidney, and then close the abdomen. Collect blood 24 hours later to conduct BUN, Cr detection.\n2. For TJM2010-5 group and CMC group, provide intraperitoneal injection of TJ-M2010-5 dissolved in 0.5% CMC of 150 mg/kg/d on the day before and the day of operation; for CMC group: inject 0.5% CMC solution of 200 μl.\n3. Observe the survival time of mice, and make the survival curve. Send the blood specimen to the pathology department for detection of BUN, Cr."}},
  "data": [
    {"smiles": "O=C(CCN1CCN(Cc2ccccc2)CC1)Nc1nc(-c2ccccc2)cs1", "note": "[TJM2010-5, 3-(4-benzylpiperazin-1-yl)-N-(4-phenylthiazol-2-yl) propanamide]", "values": [
      {"measurement": "IFN-γ vs CMC control group", "setting": "[1]; receptor spleen lymphocytes", "value": "significantly lower than that of CMC control group"},
      {"measurement": "IL-17 vs CMC control group", "setting": "[1]; receptor spleen lymphocytes", "value": "significantly lower than that of CMC control group"},
      {"measurement": "CD4+CD25+Foxp3+T cell ratio in receptor", "setting": "[1]; receptor spleen", "value": "up-regulated significantly"},
      {"measurement": "death incurred by endotoxin", "setting": "mice with endoxemia", "value": "effectively delay"},
      {"measurement": "lethality of endotoxin", "setting": "mice with endoxemia", "value": "reduce"},
      {"measurement": "weight vs control group", "setting": "GVHD mice; 50 mg/kg/day intragastric since day of irradiation, FIG. 2a-A", "value": "higher than that of control group"},
      {"measurement": "GVHD level vs control group", "setting": "GVHD mice; 50 mg/kg/day intragastric, FIG. 2a-B", "value": "significantly lower than that of control group"},
      {"measurement": "survival rate vs control group", "setting": "GVHD mice; 50 mg/kg/day intragastric, FIG. 2a-C", "value": "significantly higher than that of control group"},
      {"measurement": "general performances of mice", "setting": "GVHD mice; FIG. 2c", "value": "close to normal mice"},
      {"measurement": "GVHD reversed", "setting": "GVHD mice; TJM2010-5 alone or combined with MR1", "value": 70, "unit": "%"},
      {"measurement": "survival rates of the mice after 60 days", "setting": "GVHD mice; each TJM2010 compound combined with MR1, 50 mg/kg/day intragastric, 8 mice per group", "value": 100, "unit": "%"},
      {"measurement": "heart allograft surviving up to 100 days", "setting": "[2]", "value": 80, "unit": "%"},
      {"measurement": "survival rate after mice kidney IRI", "setting": "C57bl/6 mice kidney IRI; 150 mg/kg/d intraperitoneal day before and day of operation, FIG. 6", "value": "significantly improve"},
      {"measurement": "protection of kidney functions (BUN, Cr)", "setting": "C57bl/6 mice kidney IRI; 150 mg/kg/d intraperitoneal, blood 24 hours later, FIG. 7", "value": "better protection effect"}
    ]}
  ]
}
